Earlier results, collected in patent US9090623B2, “Compound JK12A and preparation thereof” (LIANYUNGANG JINKANG HEXIN PHARMACEUTICAL CO., LTD., priority 2012, dated 2015).

Test system: HeLa S3 cells
Details: reported in Org. Lett. 2008, 10, 489-491; cited from earlier work

Q: Which “cytotoxicity against HeLa S3 cells IC50” value does the source give for `COC(=O)c1ccc(N2CC3CNC(=O)C2(C(=O)OC)N3C)cc1` (stereo not shown) [Aplaminal] here?
A: 0.51 µg/mL
